Measured values published in patent US20090291941A1, “Tyrosine Kinase Inhibitors” (priority 2005, published 2009).

Target: T1, human c-Met (Homo sapiens, UniProt P08581)
T1 construct: Recombinant GST-tagged cytosolic domains of human c-Met; 6xHis; made in house; host or cells: baculovirus system; Sf9 or Sf21 insect cells
Assay: In vitro c-Met kinase assay (homogeneous time-resolved fluorescence tyrosine kinase assay)
Assay type: biochemical
Conditions: recombinant GST-tagged cytosolic domain of c-Met, 0.2 nM enzyme, 50 μM MgATP, HTRF readout
Source text: Recombinant GST-tagged cytosolic domains of human c-Met and other receptor tyrosine kinases including mouse c-Met, human Ron, KDR, IGFR, EGFR, FGFR, Mer, TrkA and Tie2 are used to determine whether the compounds of the instant invention modulate the enzymatic activities of these kinases.
Soluble recombinant GST-tagged cytosolic domains of c-Met and other receptor tyrosine kinases are expressed in a baculovirus system (Pharmingen) according to a protocol recommended by the manufacturer. The c-DNA encoding each cytosolic domain is subcloned into a baculovirus expression vector (pGcGHLT-A, B or C, Pharmingen) containing an in frame 6× histidine tag and a GST tag. […] The protein concentrations of the fusion proteins are determined using Coomassie Plus Protein Assay (Pierce) with BSA as standard.
The kinase activities of c-Met and other kinases are measured using a modified version of the homogeneous time-resolved tyrosine kinase assay described by Park et al. (1999, Anal. Biochem. 269:94-104).
The procedure for determining the potency of a compound to inhibit c-Met kinase comprises the following steps: • 1. […] Read HTRF signals on a Victor reader (PerkinElmer) in HTRF mode after 60 min. • 6. IC50 is determined by fitting the observed relationship between compound concentration and HTRF signal with a 4-parameter logistic equation. […]

T1 sequence (P08581 956-1390 limits assumed): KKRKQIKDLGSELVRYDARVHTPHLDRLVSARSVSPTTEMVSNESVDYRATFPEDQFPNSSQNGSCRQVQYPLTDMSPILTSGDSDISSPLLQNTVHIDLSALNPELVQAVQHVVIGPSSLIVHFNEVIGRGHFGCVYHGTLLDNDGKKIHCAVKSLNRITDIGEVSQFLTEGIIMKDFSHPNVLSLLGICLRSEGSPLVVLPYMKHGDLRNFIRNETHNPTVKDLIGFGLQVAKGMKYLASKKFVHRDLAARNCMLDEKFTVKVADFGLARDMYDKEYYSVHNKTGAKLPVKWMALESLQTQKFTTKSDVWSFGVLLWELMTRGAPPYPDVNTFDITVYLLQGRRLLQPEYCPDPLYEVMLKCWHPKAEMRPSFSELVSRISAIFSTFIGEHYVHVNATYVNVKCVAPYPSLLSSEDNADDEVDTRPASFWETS

| SMILES | IC50 [µM] |
| --- | --- |
| Nc1ccc2c(c1)C(=O)Nc1cc(-c3ccccc3)cnc1C=C2 [Compound 14, 8-amino-3-phenylpyrido[3,2-c][2]benzazocin-6(5H)-one] | < 50 |
| Nc1ccc2c(c1)NC(=O)c1cc(-c3ccccc3)cnc1C=C2 [Compound 15, 8-amino-3-phenylpyrido[3,2-c][1]benzazocin-5(6H)-one] | < 50 |
